Assay: Peptide solubility
Type: physicochemical
Settings: for solubility on resuspension: resuspended at 1 mg/ml, other peptides in water

Row | SMILES | solubility in water / PBS | solubility on resuspension
1 | CC[C@H](C)[C@H](NC(=O)[C@H](CCC(N)=O)NC(=O)[C@@H](NC(=O)[C@H](CCC(=O)O)NC(=O)[C@@H](NC(=O)[C@@H](NC(=O)[C@H](CC(C)C)NC(=O)[C@H](CO)NC(=O)[C@H](C)NC(=O)[C@H](CC(C)C)NC(=O)[C@@H](NC(=O)[C@H](CC(C)C)NC(=O)[C@@H](NC(=O)[C@H](CCC(=O)O)NC(=O)[C@H](Cc1ccccc1)NC(=O)[C@H](CCCCN)NC(=O)[C@H](CCSC)NC(=O)[C@H](CCC(=O)O)NC(=O)[C@H](CCCCN)NC(=O)CN)C(C)C)[C@@H](C)O)[C@@H](C)O)[C@@H](C)O)[C@@H](C)CC)C(=O)O [N8] | solubility problems in water | required 10% (v/v) acetic acid for solubility
2 | CC[C@H](C)[C@H](NC(=O)CN)C(=O)N[C@@H](Cc1ccccc1)C(=O)N[C@@H](C)C(=O)NCC(=O)N[C@@H](CC(C)C)C(=O)N[C@@H](Cc1ccccc1)C(=O)N[C@@H](CCSC)C(=O)N[C@@H](CC(N)=O)C(=O)N[C@@H](C)C(=O)N[C@@H](Cc1ccc(O)cc1)C(=O)NCC(=O)N[C@@H](C)C(=O)NCC(=O)N[C@@H](CCC(N)=O)C(=O)N[C@H](C(=O)N[C@@H](CCSC)C(=O)N[C@@H](CC(C)C)C(=O)N[C@@H](CCCNC(=N)N)C(=O)N[C@@H](Cc1c[nH]c2ccccc12)C(=O)O)C(C)C [N17] | solubility problems in water | required 10% (v/v) acetic acid for solubility
3 | CC[C@H](C)[C@H](NC(=O)[C@H](CC(C)C)NC(=O)CNC(=O)[C@@H](NC(=O)[C@H](Cc1ccccc1)NC(=O)[C@H](CCCCN)NC(=O)[C@H](Cc1c[nH]cn1)NC(=O)[C@H](CC(N)=O)NC(=O)[C@H](C)NC(=O)[C@H](CC(=O)O)NC(=O)[C@H](CCC(=O)O)NC(=O)[C@@H](NC(=O)[C@@H](NC(=O)[C@H](CC(C)C)NC(=O)[C@H](CC(C)C)NC(=O)[C@H](CCSC)NC(=O)CNC(=O)[C@H](CS)NC(=O)[C@H](CC(C)C)NC(=O)[C@@H](N)CCCCN)[C@@H](C)CC)[C@@H](C)O)[C@@H](C)O)C(=O)O [peptide N4] | soluble in PBS | 
